“Also recorded” adds a separate entry of the source.
Legend:
carious dentin tissue [1] = assay: Rinsing of carious dentin tissue labelled with a dye
[2] = system: carious tissue in caries infected tooth slices; assay: Staining of caries infected tooth slices with colours, then washing with MQ water, NaCl and NaOH; conditions: for staining of the tooth slice after NaCl and NaOH (Day 4): after NaCl 1 M and NaOH 0.5 M over night, visible light, UV or fluorescence microscopy; for kind of binding to carious tissue in infected teeth (conclusion): concluded from staining after NaCl and NaOH washes
Procedure: This experiment aimed to see if the added colours SEEK, Acid red 1, Lucifer Yellow, a combination of Lucifer Yellow and Acid red 1, or 5-(2-2-hydrazinyl-2-oxoethylthio)acetamido)-2-(3-hydroxy-6-oxo-6H-xanthen-9-yl)benzoic acid, Alexa Fluor® 594 and Alexa 350 bind to the surface of caries or not, after excavation down to a clinically caries free denoted surface. Experiments were performed during 4 days.
Whole caries infected tooth was added to an ortho acryl gel, which after hardening was used as a holder prior to sawing (saw of brand Zaw Micro Tone, German). Slices, having a thickness of 150 μm, were left over night in each colour to be tested (Day one). On the second day, the colours were washed out by rinsing the slices with MQ water and the teeth sections were photographed under either a microscope (6.7×; visible light), in UV (no microscope) or under a fluorescence microscope (100×). Thereafter, an aqueous salt solution (NaCl, 1 M) was added to the slices and incubated over night. On the third day the slices were washed with MQ water and thereafter the same detection procedures were used as described above. Finally the tooth slices were exposed to an aqueous solution of NaOH (0.5 M) over night. The washing and detection path were then repeated as described previously (Day 4).

[3] = system: carious dentin tissue of a pre molar tooth; assay: Staining of a pre molar tooth cavity with Alexa 594 and removal with Carisolv and hand instrument
Procedure: Carious dentin tissue of a pre molar tooth was treated with Carisolv® to obtain a cavity and subsequently stained with an aqueous solution of the hydrazine derivative Alexa 594.
The concentration of the aqueous solution of the hydrazine derivative Alexa 594 was 15-50 mM. […] Carisolv® was added to the cavity and excavation took place with a hand instrument from Mediteam Dental AB to reach a carious free level. […] A dentist performed tactile control of this surface and confirmed that the surface was free of caries. […] The slightly stained surface was subjected to treatment with Carisolv® followed by excavation with a hand instrument. […] It was concluded that a hydrazine derivative such as Alexa 594 can be used in combination with a chemical means for carious dentin tissue such as Carisolv® for selective detection and removal of carious dentin tissue.

[4] = system: carious dentin tissue of a pre molar tooth; assay: Staining of a pre molar tooth with Alexa 594 and removal with a dentist's drill; conditions: 15-50 mM aqueous solution, drilling and staining repeated several times
Procedure: Carious dentin tissue of a pre molar tooth stained with an aqueous solution of the hydrazine derivative Alexa 594 in a concentration of 15-50 mM was subjected to mechanical treatment by a dentist's drill until no staining could be visually detected. […] The stained surface was subjected to drilling until no staining could be visually detected. A dentist examined the surface visually and with a tactile instrument and concluded that the surface was free of caries. […] Again, drilling of the stained surface took place until no staining could be observed. […] Drilling and staining as described above in this example was repeated several times. […] It was concluded that selective detection and removal of carious dentin tissue using a hydrazine derivative in combination with a dentist's drill was not possible. […] This is in contrast to the successful selective detection and removal of carious dentin tissue using a hydrazine derivative in combination with a chemical means for treatment of carious dentin tissue as described in Example 5.

healthy dentin tissue [5] = assay: FTIR of healthy dentin tissue treated with Lucifer Yellow; parameters: species or system human; conditions: Lucifer Yellow 13 mM aqueous, overnight, no peak at 1740 cm−1 in any sample
From the text: (§1) Extracted permanent human teeth with no previous dental restorations were selected due to their severe carious tissue status and analysed with FTIR within one week after extraction. The outermost part of the carious dental lesions was removed. The remaining dental carious tissue was divided into two layers; one outer layer with discoloured, soft and infected dental carious tissue and one inner layer that was excavated down to the observed uncoloured hard surface of the remaining healthy dentin controlled by tactile procedures.
(§2) Healthy dentin tissue and carious dentin tissue from the innermost layer were collected. This healthy dentin tissue sample and carious dentin tissue sample were then each divided into three samples.
(§3) The healthy dentin tissue sample (26 mg) was divided and treated as follows. […] Fluorescence of bounded hydrazine derivate Lucifer Yellow was checked by a UV lamp. […] The third sample, hereinafter denominated sample S3, (7 mg) and the last procedure was treated with NaBH4 (0.5 M in ethanol) and washed with concentrated ethanol to reduce aldehydes and ketones before the addition of an aqueous solution of the hydrazine derivate Lucifer Yellow (13 mM), repeated rinsing with purified water before dried and analysed.
(§4) Thus, in total 6 samples (three from the healthy dentin tissue and three from the carious dentin tissue) were analysed with FTIR within one week after extraction. […]

carious dentin tissue [6] = assay: FTIR of carious dentin tissue treated with Lucifer Yellow; parameters: species or system human
From the text: as §1, §2
as §3, with “analysed. […]” for “analysed.”
as §4

carious dentin tissue [7] = assay: TOF-SIMS of carious dentin tissue treated with Lucifer Yellow
Procedure: FTIR-ATR and TOF-SIMS analyses were performed on a sample group consisting of carious tissue inner most layers selected and estimated with an exactness of a working dentist. Samples were pooled from 4-6 teeth of inner layer of carious tissue (37 mg). The pooled sample was divided into two subgroups where one was exposed to the hydrazine derivate Lucifer Yellow and further analysed with TOF-SIMS and the other only analysed with FTIR-ATR. An aqueous solution of the hydrazine derivate Lucifer Yellow (1.8 mM) was added to the inner layer carious tissue (19 mg) and after 1 hour exposure washed with an aqueous solution of NaOH (0.5 M) and purified water before dried over vacuum. Events prolonged under a couple of hours from extraction to excavation to the drying and milling of the substances. Both FTIR-ATR and TOF-SIMS followed. FTIR-ATR was performed as described in Example 3 above. […] Each sample was attached to double side tape and analysed with a TOF-SIMS instrument (TOF-SIMS IV, CAMECA/IONTOF, GmbH, Germany). Positive secondary ion mass spectra were recorded from different areas of the sample at a size of […] and separated in a mass analyser and next compared with known mass spectra from the Ion Spec application (IonTof, GmbH, Germany, ver. 4.1) linked with the TOF-SIMS instrument. Negative secondary ion mass spectra were also recorded but gave no further information. […]

healthy dentin tissue [8] = assay: TOF-SIMS of healthy dentin tissue treated with Lucifer Yellow; conditions: positive mass spectra, treated similar to untreated

CC(=O)Nc1cc(S(=O)(=O)[O-])cc2cc(S(=O)(=O)[O-])c(/N=N/c3ccccc3)c(O)c12.[Na+].[Na+] [Acid red 1, reference compound]
effect of rinsing on dye bonded to carious dentin tissue (carious dentin tissue [1]): release of the dye bonded to the carious dentine tissue
staining of the tooth slice after incubation with 1 M NaCl ([2]; 150 μm slices left over night in colour, rinsed with MQ water, NaCl 1 M over night): only little staining remained
staining of the tooth slice after NaCl and NaOH (Day 4) [2]: no colouring of the slice treated with Acid red 1 could be detected using visible light and barely with microscope
kind of binding to carious tissue in infected teeth (conclusion) [2]: binds in a reversible way

NNC(=O)CSCC(=O)Nc1ccc(-c2c3ccc(=O)cc-3oc3cc(O)ccc23)c(C(=O)O)c1 [5-(2-2-hydrazinyl-2-oxoethylthio)acetamido)-2-(3-hydroxy-6-oxo-6H-xanthen-9-yl)benzoic acid]
staining of the tooth slice after NaCl and NaOH (Day 4) [2]: still contained colourants; also recorded: staining
kind of binding to carious tissue in infected teeth (conclusion) [2]: bind irreversibly

6-(2-carboxy-5-(hydrazinecarbonyl)phenyl)-1,2,2,10,10,11-hexamethyl-2,10-dihydro-1H-pyrano[3,2-g]diquinoline-11-ium-4,8-diyl)methanesulfonate [Alexa Fluor® 594]
sensitivity of caries detection compared with tactile control by a dentist [3]: better and more sensitive method for detecting carious dentin tissue than tactile control
staining of the cavity, first staining ([3]; 15-50 mM aqueous solution, cavity obtained with Carisolv): intense dark bluish colour
staining of the surface after second Carisolv treatment and excavation ([3]; final attempt to stain): no staining took place
staining of the surface after first Carisolv treatment and excavation ([3]; surface judged free of caries by dentist's tactile control): very slight staining at the center of the cavity
staining of the surface after drilling until no staining visible [4]: staining always took place after the drilling had been performed
staining of the tooth slice after NaCl and NaOH (Day 4) [2]: still contained colourants
staining of the tooth slice after NaCl and NaOH (Day 4) ([2]; listed as Alexa Fluor 594®): staining
kind of binding to carious tissue in infected teeth (conclusion) [2]: bind irreversibly

NNC(=O)NN1C(=O)c2cc(S(=O)(=O)O)cc3c(N)c(S(=O)(=O)O)cc(c23)C1=O [Lucifer Yellow]
reaction with healthy dentin tissue (healthy dentin tissue [5]): no reaction takes place
reaction with carious dentin tissue (carious dentin tissue [6]; FTIR, Lucifer Yellow 13 mM aqueous, overnight, peak at 1740 cm−1 no longer present): reaction has taken place
selectivity of reaction, carious versus healthy dentin tissue (FTIR) (carious dentin tissue [6]; concluded from FTIR of samples S1-S6): selectively reacts with carious dentin tissue
bonding to carious dentin tissue (TOF-SIMS) (carious dentin tissue [7]; Lucifer Yellow 1.8 mM, 1 hour, washed with NaOH 0.5 M, positive spectra, repeated difference of 106 mass units): covalently bound to the carious tissue
selectivity of reaction, carious versus healthy dentin tissue (TOF-SIMS) (carious dentin tissue [7]; concluded from TOF-SIMS spectra): selectively reacts with carious dentin tissue
reaction with healthy dentin (TOF-SIMS) (healthy dentin tissue [8]): did not react with healthy dentin
staining of the tooth slice after NaCl and NaOH (Day 4) [2]: still contained colourants
kind of binding to carious tissue in infected teeth (conclusion) [2]: bind irreversibly

Cc1c(CC(=O)NN)c(=O)oc2cc(N)c(S(=O)(=O)O)cc12 [Alexa 350]
staining of the tooth slice after NaCl and NaOH (Day 4) [2]: still contained colourants
kind of binding to carious tissue in infected teeth (conclusion) [2]: bind irreversibly

Reference: patent US9642780B2, “Detection and removal of carious dentin tissue” (RLS Global AB, priority 2011, dated 2017)
